Data: patent US20110130447A1, “Production of hop extracts having oestrogenic and antiproliferative bioactivity” (priority 2004, published 2011)
Blank lines part the entries; values can stand above or below the compound they belong to.

Experiments:
[1] = cited from earlier work; for oestrogenic activity: Milligan et al., 1999, 2000
human oestrogen receptor = target: T1, human oestrogen receptor (Homo sapiens, UniProt P03372); test: Oestrogen-inducible yeast screen (Lac-Z reporter); format: cell-based; conditions: FIG. 4, relative to 8-prenylnaringenin
T1 construct: expressed in transfected cells; host or cells: Saccharomyces cerevisiae
Protocol: The yeasts were grown in a medium containing increasing concentrations of 17β-estradiol (positive control), 8-prenylnaringenin (8-PN), 8-isopentylnaringenin (8PN-H2) or dihydro-isoxanthohumol (IsoX-H2). Expression of the Lac-Z reporter gene was spectrophotometrically measured and quantified.

[2] = Bioavailability and stability of 8-isopentylnaringenin compared with 8-prenylnaringenin
[3] = test system: oestrogen-responsive MCF-7 breast cancer cells; test: Bioassay of 8-prenylnaringenin-induced proliferation of MCF-7 cells and its inhibition by xanthohumol; format: cell-based
Protocol: A bioassay was developed to probe proliferation of oestrogen-dependent cancer cells by 8-prenylnaringenin and to determine concentrations of xanthohumol required to inhibit this 8-prenylnaringenin-induced proliferation. Thereto, oestrogen-responsive MCF-7 breast cancer cells were grown in 96-well plates in the presence of a fixed and growth-stimulatory concentration of 8-prenylnaringenin and varying concentrations of xanthohumol. For each concentration of 8-prenylnaringenin (1 nM, 10 nM, and 100 nM), the concentrations of xanthohumol were 0 μM, 0.1 μM, 1 μM, 5 μM, 10 μM and 25 μM, respectively.

[4] = Milligan et al., 2002; cited from earlier work
cyclooxygenase-2 = target: T2, cyclooxygenase-2 (Homo sapiens, UniProt P35354); conditions: Gerhauser et al., 2002; cited from earlier work
T2 sequence (P35354 18-604): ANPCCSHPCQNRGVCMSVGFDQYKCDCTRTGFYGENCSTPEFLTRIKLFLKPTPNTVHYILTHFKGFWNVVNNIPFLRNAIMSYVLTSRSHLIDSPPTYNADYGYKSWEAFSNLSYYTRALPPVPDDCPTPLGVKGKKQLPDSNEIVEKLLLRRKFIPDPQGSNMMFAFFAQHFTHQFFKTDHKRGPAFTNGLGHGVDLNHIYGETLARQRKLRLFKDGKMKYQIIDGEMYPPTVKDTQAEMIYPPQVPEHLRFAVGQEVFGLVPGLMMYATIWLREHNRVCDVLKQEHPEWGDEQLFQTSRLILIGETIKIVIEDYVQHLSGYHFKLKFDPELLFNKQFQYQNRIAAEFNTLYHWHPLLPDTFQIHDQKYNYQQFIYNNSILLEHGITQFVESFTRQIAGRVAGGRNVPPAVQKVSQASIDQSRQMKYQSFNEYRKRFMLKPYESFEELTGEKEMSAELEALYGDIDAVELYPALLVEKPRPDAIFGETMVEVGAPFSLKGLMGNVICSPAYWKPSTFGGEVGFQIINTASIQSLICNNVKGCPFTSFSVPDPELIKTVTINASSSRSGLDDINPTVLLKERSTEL

[5] = test system: mouse mammary gland organ culture; conditions: Gerhauser et al., 2002; cited from earlier work
cyclooxygenase-1 = target: T3, cyclooxygenase-1 (Ovis aries, UniProt P05979); conditions: Gerhauser et al., 2002; cited from earlier work
T3 sequence (P05979 25-600): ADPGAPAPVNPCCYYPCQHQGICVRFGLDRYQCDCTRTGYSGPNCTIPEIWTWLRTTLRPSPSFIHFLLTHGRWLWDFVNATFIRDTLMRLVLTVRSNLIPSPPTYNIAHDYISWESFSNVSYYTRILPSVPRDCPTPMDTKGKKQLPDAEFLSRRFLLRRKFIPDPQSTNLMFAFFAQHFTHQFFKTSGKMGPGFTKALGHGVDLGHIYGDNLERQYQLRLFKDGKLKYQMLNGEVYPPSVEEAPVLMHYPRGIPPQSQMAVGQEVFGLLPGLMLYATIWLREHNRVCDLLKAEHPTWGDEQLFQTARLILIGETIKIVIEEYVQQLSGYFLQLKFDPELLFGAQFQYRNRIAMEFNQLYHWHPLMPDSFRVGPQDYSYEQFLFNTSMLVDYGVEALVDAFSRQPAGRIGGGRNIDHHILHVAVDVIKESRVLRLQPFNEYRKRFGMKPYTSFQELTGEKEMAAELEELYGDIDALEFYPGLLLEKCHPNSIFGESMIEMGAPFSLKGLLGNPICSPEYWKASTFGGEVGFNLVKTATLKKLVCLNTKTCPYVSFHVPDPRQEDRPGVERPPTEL

T1 sequence (P03372 whole entry): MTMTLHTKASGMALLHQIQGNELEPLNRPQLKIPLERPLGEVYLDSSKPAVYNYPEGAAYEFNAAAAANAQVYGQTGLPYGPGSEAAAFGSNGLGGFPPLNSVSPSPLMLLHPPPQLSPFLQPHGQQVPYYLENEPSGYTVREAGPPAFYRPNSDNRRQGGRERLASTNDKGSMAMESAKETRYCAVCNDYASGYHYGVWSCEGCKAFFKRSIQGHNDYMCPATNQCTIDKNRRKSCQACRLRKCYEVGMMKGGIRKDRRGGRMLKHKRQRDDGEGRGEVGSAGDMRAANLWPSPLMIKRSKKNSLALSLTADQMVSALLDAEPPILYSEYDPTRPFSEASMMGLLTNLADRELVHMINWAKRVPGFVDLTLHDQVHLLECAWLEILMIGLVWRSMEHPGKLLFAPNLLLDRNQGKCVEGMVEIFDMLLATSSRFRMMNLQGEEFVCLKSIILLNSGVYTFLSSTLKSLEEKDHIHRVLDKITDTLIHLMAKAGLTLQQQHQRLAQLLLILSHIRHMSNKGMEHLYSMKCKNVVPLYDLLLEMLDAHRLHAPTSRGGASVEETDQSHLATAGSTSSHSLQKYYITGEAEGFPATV

SMILES: CC(C)=CCc1c(O)c(CC=C(C)C)c2c(c1O)C(=O)C[C@@H](c1ccc(O)cc1)O2 [6,8-diprenylnaringenin]
- oestrogenic activity [1]: only weakly oestrogenic

SMILES: CC(C)=CCc1c(O)cc2c(c1O)C(=O)C[C@@H](c1ccc(O)cc1)O2 [6-prenylnaringenin]
- oestrogenic activity [1]: only weakly oestrogenic

SMILES: CC(C)=CCC/C(C)=C/Cc1c(O)cc(O)c2c1O[C@H](c1ccc(O)cc1)CC2=O [8-geranylnarin-genin]
- oestrogenic activity [1]: only weakly oestrogenic

- oestrogenic activity, times weaker than 8-prenylnaringenin (human oestrogen receptor): 3-4 times
- stability compared to 8-prenylnaringenin (less easily metabolised) [2]: better stability
SMILES: CC(C)CCc1c(O)cc(O)c2c1O[C@H](c1ccc(O)cc1)CC2=O [8-isopentylnaringenin]

SMILES: CC(C)=CCc1c(O)cc(O)c2c1O[C@H](c1ccc(O)cc1)CC2=O [8-prenylnaringenin]
- proliferation of MCF-7 breast cancer cells ([3]; increasing concentrations of 8-prenylnaringenin (1 nM, 10 nM, 100 nM), FIG. 2): increased proliferation
- oestrogenic activity in vivo [4]: high oestrogenic activity
- oestrogenic activity [1]: activity greater than that of other established phyto-oestrogens

SMILES: COc1cc(O)c(CC=C(C)C)c2c1C(=O)CC(c1ccc(O)cc1)O2 (stereo not shown) [isoxanthohumol]
- oestrogenic activity [1]: only weakly oestrogenic

SMILES: COc1cc(O)c(CC=C(C)C)c(O)c1C(=O)/C=C/c1ccc(O)cc1 [xanthohumol]
- xanthohumol to 8-prenylnaringenin weight ratio giving sufficient inhibition of proliferation ([3]; FIG. 2): at least 10
- concentrations of xanthohumol that significantly inhibit the proliferation induced by 8-prenylnaringenin ([3]; MCF-7 cells, 8-prenylnaringenin 1, 10, 100 nM): at least 5 μM
- concentrations of xanthohumol that stimulated the proliferation induced by 8-prenylnaringenin ([3]; MCF-7 cells, each concentration of 8-prenylnaringenin, ratio of xanthohumol to 8-prenylnaringenin below 10): < 1 µM
- inhibition of cyclooxygenase-2 activity (cyclooxygenase-2): inhibition
- prevention of carcinogen-induced preneoplastic lesions [5]: efficient at nanomolar concentrations
- inhibition of cyclooxygenase-1 activity (cyclooxygenase-1): inhibition
- oestrogenic activity of xanthohumol ([1]; no source stated): oestrogenically inactive
